Activity calls are given as the source filed them.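 Rule for the calls: active = half-maximal concentration for changing protein binding to DNA, from the fitted dose curve, below 10 micromolar; inactive = the rest.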
What follows are molecules tested against Nuclear receptor subfamily 1 group D member 1 (Homo sapiens) (UniProt P20393) (assay: Rev-erbα–DNA interaction modulators – biochemical, FITC-DNA, fluorescence polarization, dose response (AID 1259321)). Conditions: Rev-erb alpha-FITC-DNA binding.
Chain of Nuclear receptor subfamily 1 group D member 1 (Homo sapiens) (P20393 whole entry, looked up): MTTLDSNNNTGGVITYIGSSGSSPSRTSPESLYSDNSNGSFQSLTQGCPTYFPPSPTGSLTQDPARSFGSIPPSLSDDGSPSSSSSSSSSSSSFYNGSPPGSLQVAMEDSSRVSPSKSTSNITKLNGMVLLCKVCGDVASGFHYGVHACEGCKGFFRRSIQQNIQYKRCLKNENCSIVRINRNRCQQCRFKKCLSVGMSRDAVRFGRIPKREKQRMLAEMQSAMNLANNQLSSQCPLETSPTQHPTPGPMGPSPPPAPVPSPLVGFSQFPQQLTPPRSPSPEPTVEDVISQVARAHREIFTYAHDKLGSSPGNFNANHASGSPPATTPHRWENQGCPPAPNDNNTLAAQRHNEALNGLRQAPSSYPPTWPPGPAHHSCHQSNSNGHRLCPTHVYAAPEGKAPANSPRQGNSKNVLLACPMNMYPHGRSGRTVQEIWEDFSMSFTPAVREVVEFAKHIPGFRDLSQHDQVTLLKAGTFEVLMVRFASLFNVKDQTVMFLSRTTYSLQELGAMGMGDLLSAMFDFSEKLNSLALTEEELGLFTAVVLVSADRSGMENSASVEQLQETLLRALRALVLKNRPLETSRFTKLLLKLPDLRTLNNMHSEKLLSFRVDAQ

SMILES	IC50
O=c1c2ccccc2nc2sc(Nc3ccc(F)cc3)nn12	inactive
Cc1nn(-c2ccc(Cl)c(Cl)c2)c(=O)c2ccccc12	5.16 µM
CCCCCC[n+]1ccccc1/C=C/c1ccc(N(C)C)cc1	7.24 µM
CCc1cc2cc(C)ccc2nc1SCC(=O)NC1CCCC1	3.66 µM
CC(=O)c1ccccc1NC(=O)c1cc(S(=O)(=O)N2CCOCC2)ccc1N1CCCC1	4.33 µM
O=C(CCSc1nnc2scc(-c3ccccc3)n12)Nc1nc(-c2ccccc2)ns1	inactive
CN(CCC#N)c1ccc(/C=C(\C#N)c2ccccn2)cc1	5.63 µM
COc1ccc(CNC(=O)C2CCC(CNS(=O)(=O)c3cccc4nsnc34)CC2)cc1 (stereo not drawn)	8.16 µM
CNC(=O)c1ccsc1NC(=O)c1sc2ccccc2c1Cl	inactive
Cc1ccc(N(Cc2cc3cc(C)ccc3[nH]c2=O)C(=O)c2cccs2)cc1	5.54 µM
COc1ccc(NC(=O)COC(=O)c2ccc3c(c2)OCO3)c(OC)c1	> 40 µM (inactive)
COc1ccc(C#Cc2ccc(C3=CC(=O)CC(C)(C)C3=O)cc2)cc1	0.472 µM
COc1ccccc1-c1ccc2c(c1)C(C)(Cc1ccccc1C#N)C(=O)N2 (stereo not drawn)	7.13 µM

From PubChem BioAssay AID1259321 (Sanford-Burnham Center for Chemical Genomics, 2017)
